Values of other authors, collected in US20110082200A1, “5,6,7-TRIHYDROXYHEPTANOIC ACID AND ANALOGS FOR THE TREATMENT OF OCULAR DISEASES AND DISEASES ASSOCIATED WITH HYPERPROLIFERATIVE AND ANGIOGENIC RESPONSES” (ALCON, INC., priority 2004, published 2011).

Legend:
neutrophils = settings: compared with lipoxin A4
endothelial cell [1] = settings: in vitro
endothelial cell [2] = settings: in vitro; remark: listed apart in the source
[3] = tested on: VEGF-induced angiogenesis; settings: murine chronic granulomatous air pouch model

SMILES	inhibition of LTB4-induced chemotaxis of neutrophils (neutrophils)	inhibition of VEGF-induced endothelial cell chemotaxis and proliferation (endothelial cell [1])	inhibition of leukotriene D4-induced endothelial cell chemotaxis and proliferation (endothelial cell [2])	inhibition of VEGF-induced angiogenesis [3]
COC(=O)CCC[C@H](O)[C@H](O)CO [Compound 1]	as potently as lipoxin A4			
O=C(O)CCC[C@H](O)[C@H](O)/C=C/C=C/C=C\C=C\[C@H](O)COc1ccc(F)cc1 [Lipoxin analog 3]		inhibit	inhibit	inhibit
CCCCC[C@H](O)[C@H](O)CO [Compound 2]	as potently as lipoxin A4			
